Data reported in PubChem BioAssay (NCI).
“And” between values parts separate entries of the source, which are not always exact repeats. Identical values can stand only once.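 48-hour exposure; five concentrations; linearly interpolated endpoints. Here, GI50 denotes the concentration required for 50% inhibition of growth. At the TGI there is no net growth.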

Key:
Experiment in all cases: growth of human tumour cells (NCI), 48 h
[1] = test system: ACHN renal
[2] = test system: HOP-62 NSCLC
[3] = test system: MOLT-4 leukemia
[4] = test system: NCI-H522 lung
[5] = test system: RPMI-8226 leukemia
[6] = test system: TK-10 renal
[7] = test system: HS 578T breast
[8] = test system: KM12 colon
[9] = test system: A498 renal
[10] = test system: SNB-19 CNS
[11] = test system: MDA-MB-231 breast

Compound	TGI [1]	TGI [2]	TGI [3]	TGI [4]	TGI [5]	TGI [6]	TGI [7]	TGI [8]	TGI [9]	TGI [10]	TGI [11]	GI50 [11]
c1ncn(C23C4C5C6C4C2C6C53)n1 (configuration not stated)	> 100 µM	> 100 µM	> 100 µM	> 100 µM	> 100 µM	> 100 µM	> 100 µM	> 100 µM	> 100 µM	> 100 µM	> 100 µM	–
COC(=O)[C@H]1C=NN[C@@H]1C(=O)N1[C@H]2CC3CC[C@@]2(CS1(=O)=O)C3(C)C	> 100 µM	> 100 µM	> 100 µM	> 100 µM	> 100 µM	> 100 µM	> 100 µM	> 100 µM	> 100 µM	> 100 µM	> 100 µM	–
S=C1c2ccc(Cl)cc2-n2cnnc2C2CSCN12 (configuration not stated)	> 100 µM	> 100 µM	> 100 µM	> 100 µM	> 100 µM	> 100 µM	> 100 µM	> 100 µM	> 100 µM	> 100 µM	> 100 µM	–
COC(=O)Cc1cc(O)c2c(c1O)C(=O)c1ccccc1C2=O	> 77.9 µM	63.3 µM	> 100 µM	> 100 µM	> 100 µM	> 79.9 µM	> 84.5 µM	> 100 µM	> 87.1 µM	> 85.5 µM	97.5 µM	–
CC(N=NNc1ccc(-c2nc3ccccc3[nH]2)cc1)C(=O)O (configuration not stated)	> 100 µM	> 100 µM	> 100 µM	75.7 µM	> 100 µM	> 100 µM	> 100 µM	> 100 µM	> 100 µM	> 100 µM	> 100 µM	–
O=C(O)CCc1nc2c(n1-c1ccccc1)C(=O)c1ccccc1C2=O	> 100 µM	> 100 µM	> 100 µM	> 100 µM	> 100 µM	> 100 µM	> 100 µM	> 100 µM	> 100 µM	> 100 µM	> 100 µM	–
C=CCOC(=O)N1c2ccc(O[Si](C)(C)C(C)(C)C)cc2[C@@]23O[C@@]24[C@@H]1C#C/C=C\C#C[C@]3(O)C(OC)(OC)C[C@@H]4C	> 100 µM	> 100 µM	> 42.9 µM	> 100 µM	> 100 µM	> 100 µM	> 89.1 µM	> 100 µM	5.48 µM	> 100 µM	> 100 µM	–
N#Cc1c(-c2ccc(Cl)cc2)c2c(nn3c4ccc5ccccc5c4nnc23)[nH]c1=O	8.76 µM	7.97 µM	> 46.4 µM	3.56 µM	> 28.9 µM	> 100 µM	6.54 µM	13.3 µM	3.69 µM	24.2 µM	20.6 µM	–
OC1[C@@H]2[C@@H](O)CCCN2C[C@@H](O)[C@H]1O (some centres not stated)	> 100 µM	> 100 µM	> 100 µM	> 100 µM	> 100 µM	> 100 µM	> 100 µM	> 100 µM	> 100 µM	> 100 µM	> 100 µM	–
Fc1ccc(C(OCCN2CCN(CCCc3ccccc3)CC2)c2ccc(F)cc2)cc1	17.4 µM	17.7 µM	19 µM	12.4 µM	8.63 µM	18.7 µM	10.1 µM	17.1 µM	19.7 µM	14.5 µM	11.3 µM	–
CC(=O)c1c(-c2cccc3ccccc23)c(C#N)c(=S)n(C2OC(CO)C(O)C(O)C2O)c1C (configuration not stated)	> 100 µM	> 100 µM	> 100 µM	> 100 µM	> 100 µM	> 100 µM	> 100 µM	> 100 µM	> 100 µM	> 100 µM	> 100 µM	> 100 µM and 37.5 µM
C[C@@H]1OC(=O)C[C@H]2CC(=O)N(CCC3CN(C(=O)OCc4ccccc4)c4ccccc43)C[C@@H]21 (some centres not stated)	> 100 µM	> 100 µM	> 100 µM	> 100 µM	> 100 µM	> 100 µM	> 100 µM	> 100 µM	> 100 µM	> 100 µM	> 100 µM	–
CC(C)/C(Cl)=N/OC(=O)Nc1ccc(Br)cc1	3.77 µM	31.7 µM	5.45 µM	2.97 µM	5.24 µM	26.2 µM	58.4 µM	26.6 µM	33.8 µM	44.1 µM	31.2 µM	–
Cn1c(=O)c2c(nc3n(CC(O)CCl)c(=O)ccn23)n(C)c1=O (configuration not stated)	> 100 µM	> 100 µM	92.1 µM	> 100 µM	> 100 µM	> 100 µM	> 100 µM	> 100 µM	> 100 µM	> 100 µM	> 100 µM	–
O=[N+]([O-])c1ccccc1OCCOc1ccccc1[N+](=O)[O-]	> 100 µM	> 100 µM	> 100 µM	> 100 µM	> 100 µM	> 100 µM	> 100 µM	> 100 µM	> 100 µM	> 100 µM	> 100 µM	–
O=C(O)CC(Cc1ccccc1Cl)C(=O)O (configuration not stated)	> 100 µM	> 100 µM	> 100 µM	> 100 µM	> 100 µM	> 100 µM	> 100 µM	> 100 µM	> 100 µM	> 100 µM	> 100 µM	–
CCC/C(Cl)=N\OC(=O)Nc1ccc(F)cc1	24.7 µM	38.2 µM	14.9 µM	4.12 µM	15.6 µM	29.2 µM	> 86.4 µM	42.6 µM	35.3 µM	40.9 µM	33.1 µM	–
O=c1[nH]c(Nc2ccccc2)nc2c1ncn2CC(O)CSCCO (configuration not stated)	> 100 µM	> 100 µM	> 100 µM	> 100 µM	> 100 µM	> 100 µM	> 100 µM	> 100 µM	> 100 µM	> 100 µM	> 100 µM	–
[N-]=[N+]=Nc1c(Cc2ccccc2)c(Cl)nc2ccccc12	> 100 µM	51 µM	> 100 µM	> 100 µM	87.3 µM	53 µM	54.4 µM	61.2 µM	65.3 µM	83.1 µM	56.7 µM	–
COc1cc2c(c3c1c(=O)c1ccccc1n3C)C=CC1(CCCC1)O2	32.7 µM	28.7 µM	> 100 µM	33.5 µM	5.48 µM	33.7 µM	9.75 µM	25.3 µM	31.9 µM	35.2 µM	38.2 µM	–
COC(=O)C1=C(O)C(C(=O)OC)C2CC(=O)CC1C2(C)C (configuration not stated)	> 100 µM	> 100 µM	> 100 µM	> 100 µM	> 100 µM	> 100 µM	> 100 µM	> 100 µM	> 100 µM	> 100 µM	> 100 µM	–
CC(C)(C)c1ccc(OCCOc2ccc(C(C)(C)C)cc2N)c(N)c1	> 100 µM	> 100 µM	> 100 µM	> 100 µM	> 100 µM	> 100 µM	> 100 µM	> 100 µM	> 100 µM	> 100 µM	> 100 µM	–
O=C1c2cccc([N+](=O)[O-])c2C(=O)N1Cc1ccccc1	> 100 µM	> 100 µM	> 100 µM	> 100 µM	> 100 µM	> 100 µM	> 100 µM	> 100 µM	> 100 µM	> 100 µM	> 100 µM	–
N#CN1C2CCC1CC(=O)C2	> 100 µM	> 100 µM	> 100 µM	> 100 µM	> 100 µM	> 100 µM	> 100 µM	> 100 µM	> 100 µM	> 100 µM	> 100 µM	–
c1ccc(/C(=N/Nc2nc3ccccc3s2)C2CCCCC2)nc1	19.3 µM	23.5 µM	27.8 µM	7.32 µM	21.9 µM	14.5 µM	50 µM	29.6 µM	31.4 µM	30.6 µM	27.3 µM	–
CN(C)CC(O)c1ccc(Cl)c2ccccc12 (configuration not stated)	> 100 µM	> 100 µM	55.8 µM	> 100 µM	11 µM	> 94 µM	> 100 µM	> 100 µM	45.9 µM	> 100 µM	> 73.4 µM	–
